Results on eight compounds are retold here after ChEMBL document CHEMBL5532664, “Discovery, Optimization, and Evaluation of Potent and Selective DNA-PK Inhibitors in Combination with Chemotherapy or Radiotherapy for the Treatment of Malignancies” (J Med Chem, 2024).

Series [1] concerns NCI-H460. Briefly: Antitumor activity against human NCI-H460 cells xenografted in BALB/ c nude mouse assessed as inhibition of tumor growth at 100 mg/kg, po administered once daily with 2 Gy irradiation and measured upto 7 days by vernier caliper analysis. Format: functional, organism-based. Conditions: time <= 7.0 day. On the technique in general: Xenograft models place foreign cells or tissue in a host animal.

Series [2] can be described thus: in vivo. Conditions: Sprague-Dawley, rat, po, 5 mg/kg.
The nature of series [3]: in vitro. Conditions: human, liver microsomes. (Liver microsomes are a subcellular fraction often used to study metabolism.)
A short description of series [4]: in vivo. Conditions: Sprague-Dawley, rat, po, 5 mg/kg. The source holds these as a separate data set.
Series [5] can be described thus: in vivo. Conditions: Sprague-Dawley, rat, po, 5 mg/kg. The source holds these as a separate data set.
Series [6] can be described thus: in vivo. Conditions: Sprague-Dawley, rat, iv, 5 mg/kg.
The nature of series [7]: in vivo. Conditions: Sprague-Dawley, rat, plasma, po, 5 mg/kg.
Description: Clearance in Sprague-Dawley rat plasma at 5 mg/kg, po measured upto 24 hrs by LC-MS/MS analysis
Series [8] in a line: in vivo. Conditions: Sprague-Dawley, rat, iv, 5 mg/kg. This is another data set of the same source.
Series [9] in a line: in vivo. Conditions: Sprague-Dawley, rat, plasma, iv, 5 mg/kg.
Description: (§1) Clearance in Sprague-Dawley rat plasma at 5 mg/kg, iv measured upto 24 hrs by LC-MS/MS analysis
The nature of series [10]: in vivo. Conditions: Sprague-Dawley, rat, iv, 5 mg/kg. The source holds these as a separate data set.
The test system of series [11] is HCT-116. The series can be described thus: Inhibition of colony formation in human HCT-116 cells preincubated with compound for 1 hr followed by exposure to 2 Gy gamma irradiation and measured after 7 days by crystal violet staining based chemiluminescence assay. Format: functional, cell-based. Conditions: HCT-116, light or radiation study.
For series [12], the system named is HCT-116. Briefly: Inhibition of colony formation in human HCT-116 cells at […] preincubated with compound for 1 hr followed by exposure to 2 Gy gamma irradiation and measured after 7 days by crystal violet staining based chemiluminescence assay relative to control. It is filed as functional. Conditions: HCT-116, light or radiation study, dose 0.25 µM, time 169 hrs.

Series [13] can be described thus: in vivo. Conditions: Sprague-Dawley, rat, po, 5 mg/kg. This is another data set of the same source.
The test system of series [14] is A549. The series can be described thus: Antitumor activity against human A549 cells xenografted in BALB/c nude mouse assessed as inhibition of tumor growth at 10 mg/kg, iv administered thrice measured upto 26 days by vernier caliper analysis. It is filed as functional, organism-based. Conditions: time <= 26.0 day.
Series [15] deals with hERG (KCNH2) (Homo sapiens, UniProt Q12809). Briefly: in vitro.
Description: Inhibition of human ERG at 20 uM relative to control
The target of series [16] is DNA-dependent protein kinase catalytic subunit (Homo sapiens, UniProt P78527).
Description: Inhibition of human DNA-PK incubated for 30 mins in presence of Mg/ATP by HTRF method
For series [17] the following is noted: rat, in vivo, iv, 5 mg/kg, 24 h.
Description: as §1

Active and inactive are the calls of the source. The calls are words filed in the database; no cut-off is given here.

Sequence of hERG (KCNH2) (Q12809 whole entry): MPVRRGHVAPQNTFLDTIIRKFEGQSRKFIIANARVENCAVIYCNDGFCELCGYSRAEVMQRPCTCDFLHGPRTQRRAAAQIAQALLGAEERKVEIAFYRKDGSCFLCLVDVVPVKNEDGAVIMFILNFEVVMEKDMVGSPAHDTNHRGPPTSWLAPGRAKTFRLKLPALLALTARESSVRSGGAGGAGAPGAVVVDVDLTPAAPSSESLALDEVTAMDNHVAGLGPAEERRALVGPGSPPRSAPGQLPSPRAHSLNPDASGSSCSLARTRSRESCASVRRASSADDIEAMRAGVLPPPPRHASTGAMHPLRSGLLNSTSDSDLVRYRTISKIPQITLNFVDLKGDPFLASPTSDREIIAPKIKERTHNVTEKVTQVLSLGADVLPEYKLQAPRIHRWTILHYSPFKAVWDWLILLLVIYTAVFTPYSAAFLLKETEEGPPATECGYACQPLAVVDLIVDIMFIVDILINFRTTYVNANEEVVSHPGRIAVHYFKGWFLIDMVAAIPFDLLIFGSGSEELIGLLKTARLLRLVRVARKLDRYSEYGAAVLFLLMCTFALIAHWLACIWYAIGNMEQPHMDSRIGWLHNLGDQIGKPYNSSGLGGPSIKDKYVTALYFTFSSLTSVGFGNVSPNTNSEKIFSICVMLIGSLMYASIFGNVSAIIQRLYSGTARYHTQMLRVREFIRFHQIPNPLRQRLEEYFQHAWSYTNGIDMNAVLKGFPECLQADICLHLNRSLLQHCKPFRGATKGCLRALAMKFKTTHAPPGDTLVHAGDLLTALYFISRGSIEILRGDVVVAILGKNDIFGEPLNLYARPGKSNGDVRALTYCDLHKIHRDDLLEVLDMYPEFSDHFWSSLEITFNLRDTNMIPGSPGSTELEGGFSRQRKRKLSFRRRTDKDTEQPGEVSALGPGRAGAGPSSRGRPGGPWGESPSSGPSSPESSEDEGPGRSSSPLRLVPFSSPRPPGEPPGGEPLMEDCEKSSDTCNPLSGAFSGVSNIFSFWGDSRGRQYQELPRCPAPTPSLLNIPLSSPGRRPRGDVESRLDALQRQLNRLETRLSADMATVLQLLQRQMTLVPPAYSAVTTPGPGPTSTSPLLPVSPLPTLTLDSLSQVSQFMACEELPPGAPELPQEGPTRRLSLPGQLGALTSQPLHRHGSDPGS

What is called half-life is the time in which the quantity being followed falls by half. The low end stands for fast loss, the high end for slow loss. In general, Cmax refers to the highest concentration seen after dosing. Usually AUC(0-t) stands for exposure summed from dosing to a finite time, without extrapolation to infinity. Broadly, the CL/F is the apparent clearance, not corrected for the fraction that reaches the circulation. As usually defined, the clearance is a measure of how efficiently the substance is removed, as volume per time. High values mean efficient removal, low ones inefficient removal. The IC50 is the concentration that gives 50% inhibition. As a reminder, the inhibition is the drop in the measured response relative to a control, in per cent. Broadly, the bioavailability is the share of a dose that reaches the circulation, judged against a reference dose that is usually intravenous. The low end stands for little systemic uptake, the high end for much systemic uptake. As to `Cc1cnc(-c2cnn(C)c2)cc1Nc1ncc2c(n1)n(C1CCOCC1)c(=O)n2C`, the result in series [1] was Active. The half-life at 24 h is 698 min in series [2] and 425 min in series [10]. Besides, the half-life at 5 min, 1 µM in series [3] was 289 min. Moreover, the Cmax at 24 h stood at 406 ng/mL in series [4] and 1320 ng/mL in series [8]. The values for the AUC(0-t) at 24 h in series [5] and in series [6] were 6470 ng·h/mL and 7300 ng·h/mL, respectively. Moreover, the apparent clearance CL/F at 24 h in series [7] was 16 mL/min/kg. Moreover, the clearance at 24 h in series [9] was 11.7 mL/min/kg. For the same compound, the concentration for half-maximal inhibition (IC50) in series [11] came to 27.5 nM. Further, the inhibition at […] in series [12] stood at 99.4%. Also, the bioavailability at 24 h in [13] is 88.5%.

Turning to `CC(=O)O[C@H]1C(=O)[C@@]2(C)[C@H]([C@H](OC(=O)c3ccccc3)[C@]3(O)C[C@H](OC(=O)[C@H](O)[C@@H](NC(=O)c4ccccc4)c4ccccc4)C(C)=C1C3(C)C)[C@]1(OC(C)=O)CO[C@@H]1C[C@@H]2O`, the result in series [14] was inactive.

`COc1ccc(-c2cc(C)c(Nc3ncc4c(n3)n(C3CCOCC3)c(=O)n4C)cn2)cc1OC`: the outcome in [1] was Active. The half-life at 24 h in series [2] was 404 min; in series [10], 284 min. Further, the half-life at 5 min, 1 µM in [3] is 139 min. Further, the figures for the Cmax at 24 h in series [4] and in series [8] were 341 ng/mL and 869 ng/mL, respectively. Also, the inhibition at 20 µM in [15] turned out to be 8.61%. Also, the area under the curve AUC(0-t) at 24 h in series [5] came out at 3450 ng·h/mL; in series [6] it was 7400 ng·h/mL. The figures for the IC50 in series [16] and in [11] were 1 nM and 48 nM, respectively. This compound also had an apparent clearance CL/F at 24 h in series [7] of 22.3 mL/min/kg. The same compound gave a clearance at 24 h in series [9] of 11 mL/min/kg. The inhibition at […] in series [12] was 99.9%. Moreover, the bioavailability at 24 h in [13] turned out to be 46.6%.

Take `Cc1cc(-c2ccc(C=O)o2)ncc1Nc1ncc2c(n1)n(C1CCOCC1)c(=O)n2C`: the half-life at 24 h in [2] was 2060 min; in series [10], 587 min. The same compound gave a half-life at 5 min, 1 µM in [3] of 19.6 min. Moreover, the maximum concentration (Cmax) at 24 h stood at 2.24 ng/mL in series [4] and 25.2 ng/mL in series [8]. Moreover, the inhibition at 20 µM in series [15] was found to be 4.42%. Besides, the AUC(0-t) at 24 h in series [5] was determined as 7.83 ng·h/mL; in series [6] it was 29.9 ng·h/mL. In series [17], this compound had a CL of 145.21 L/h/kg. Also, half-maximal inhibition in [16] (IC50) required 0.2 nM. In series [7], the CL/F at 24 h was 6790 mL/min/kg. For the same compound, the inhibition at […] in series [12] worked out at 98.5%. The same compound had a bioavailability at 24 h in series [13] of 36.2%.

In the case of `Cc1cc(-c2cccs2)ncc1Nc1ncc2c(n1)n(C1CCOCC1)c(=O)n2C`, the result in series [1] was Active. Besides, the half-life at 24 h in [2] was 440 min; in [10], 207 min. In series [3], this compound registered a half-life at 5 min, 1 µM of 118 min. Besides, the values for the Cmax at 24 h in series [4] and in series [8] were 23.8 ng/mL and 23.3 ng/mL, respectively. Moreover, the figures for the area under the curve AUC(0-t) at 24 h in [5] and in series [6] were 277 ng·h/mL and 278 ng·h/mL, respectively. The concentration for half-maximal inhibition (IC50) came out at 0.1 nM in [16] and 15.2 nM in series [11]. Moreover, the apparent clearance (CL/F) at 24 h in series [7] was 204 mL/min/kg. Besides, the clearance at 24 h in series [9] was 306 mL/min/kg. The inhibition at […] in series [12] was determined as 97.9%. The compound further displayed a bioavailability at 24 h in [13] of 99.6%.

Consider `COc1ccc(-c2cc(C)c(Nc3ncc4c(n3)n(C3CCOCC3)c(=O)n4C)cn2)cn1`, for which the values for the half-life at 24 h in series [2] and in [10] were 262 min and 200 min, respectively. Moreover, the half-life at 5 min, 1 µM in [3] turned out to be 1160 min. In addition, the maximum concentration (Cmax) at 24 h in [4] and in [8] was 1960 ng/mL throughout. For the same compound, the inhibition at 20 µM in series [15] turned out to be 16.8%. In addition, the AUC(0-t) at 24 h in series [5] was found to be 7860 ng·h/mL; in series [6], 13200 ng·h/mL. The IC50 in series [16] is 3 nM; in series [11] it was 79.3 nM. In series [7], this compound had an apparent clearance CL/F at 24 h of 10.7 mL/min/kg. The clearance at 24 h in series [9] was 6.33 mL/min/kg. Further, the inhibition at […] in [12] worked out at 96.7%. This compound returned a bioavailability at 24 h in series [13] of 59.6%.

As to `Cc1cc(-c2nc[nH]n2)ccc1Nc1ncc2c(n1)n(C1CCOCC1)c(=O)n2C`, the results for the half-life at 24 h in series [2] and in [10] were 223 min and 710 min, respectively. In series [3], this compound showed a half-life at 5 min, 1 µM of 630 min. Moreover, the results for the Cmax at 24 h in [4] and in [8] were 733 ng/mL and 4290 ng/mL, respectively. Besides, in series [15], the inhibition at 20 µM was -0.02%. Further, the AUC(0-t) at 24 h in [5] was 1350 ng·h/mL; in series [6], 4060 ng·h/mL. In addition, the IC50 in series [16] came to 0.4 nM; in series [11] it was 83.3 nM. The compound also had a CL/F at 24 h in [7] of 62 mL/min/kg. In addition, the clearance at 24 h in [9] is 20.2 mL/min/kg. Moreover, the inhibition at […] in [12] was 96.9%. Moreover, in [13], the bioavailability at 24 h came out at 33.2%.

For the compound `Cc1cc(-c2cnn(C(F)F)c2)ncc1Nc1ncc2c(n1)n(C1CCOCC1)c(=O)n2C`, the outcome in series [1] was Active. In addition, the half-life at 24 h in series [2] was 349 min; in [10], 106 min. This compound came in with a half-life at 5 min, 1 µM in [3] of 167 min. For the same compound, the Cmax at 24 h stood at 760 ng/mL in series [4] and 1890 ng/mL in [8]. The inhibition at 20 µM in series [15] came to 22.7%. In addition, the values for the area under the curve AUC(0-t) at 24 h in series [5] and in [6] were 4440 ng·h/mL and 5290 ng·h/mL, respectively. Further, the IC50 in series [16] is 0.4 nM; in series [11] it was 68 nM. Also, in series [7], the CL/F at 24 h is 17.7 mL/min/kg. The compound also gave a clearance at 24 h in [9] of 16.3 mL/min/kg. The inhibition at […] in [12] is 96.9%. The compound further yielded a bioavailability at 24 h in series [13] of 84%.
